Experimental data from ChEMBL document CHEMBL1143740, “Conformationally locked thiosugars as potent alpha-mannosidase inhibitors: synthesis, biochemical and docking studies” (Bioorg Med Chem, 2007).

test: Inhibition of jack bean alpha-mannosidase; design: species or system Canavalia ensiformis

Ki [nM]	Compound
350	O=S1(=O)C[C@@H]2O[C@H]1[C@@H](O)[C@H](O)[C@@H]2O
385	[O-][S+]1C[C@@H]2O[C@H]1[C@@H](O)[C@H](O)[C@@H]2O (stereo partly drawn)
1380	OC1[C@H](O)C2CSC(O2)[C@H]1O (single isomer, unassigned) [THIOLEVOMANNOSAN]
